System: 885512-296-R-J2-PDC complex spheroid viability
Experiment: Anticancer human tumor 885512-296-R-J2-PDC patient-derived breast carcinoma cell line growth inhibition [GQUAD]
Details: for IC50: curve of first compound; for viability, T/C: stronger effect = lower value; active means viability on the fitted dose curve at most 10% of control; inactive means the rest
Outline: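 Multi-cell-type spheroids of tumor cells with HUVEC and mesenchymal stem cells, treated with drug combinations. Concentrations descend in half-log steps from near clinical Cmax, or from 10 microM where Cmax is unknown; viability read-out.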

[1] = second compound 0.0316 µM, first compound 0.0316 µM
[2] = second compound 0.0316 µM, first compound 0.1 µM
[3] = second compound 0.0316 µM, first compound 0.316 µM
[4] = second compound 0.0316 µM, first compound 1 µM
[5] = second compound 0.0316 µM, first compound 3.16 µM
[6] = second compound 0.0316 µM, first compound 10 µM
[7] = second compound 0.1 µM, first compound 0.0316 µM
[8] = second compound 0.1 µM, first compound 0.1 µM
[9] = second compound 0.1 µM, first compound 0.316 µM
[10] = second compound 0.1 µM, first compound 1 µM
[11] = second compound 0.1 µM, first compound 3.16 µM
[12] = second compound 0.1 µM, first compound 10 µM
[13] = second compound 0.316 µM, first compound 0.0316 µM
[14] = second compound 0.316 µM, first compound 0.1 µM
[15] = second compound 0.316 µM, first compound 0.316 µM
[16] = second compound 0.316 µM, first compound 1 µM
[17] = second compound 0.316 µM, first compound 3.16 µM
[18] = second compound 0.316 µM, first compound 10 µM
[19] = second compound 1 µM, first compound 0.0316 µM
[20] = second compound 1 µM, first compound 0.1 µM
[21] = second compound 1 µM, first compound 0.316 µM
[22] = second compound 1 µM, first compound 1 µM
[23] = second compound 1 µM, first compound 3.16 µM
[24] = second compound 1 µM, first compound 10 µM
[25] = second compound 3.16 µM, first compound 0.0316 µM
[26] = second compound 3.16 µM, first compound 0.1 µM
[27] = second compound 3.16 µM, first compound 0.316 µM
[28] = second compound 3.16 µM, first compound 1 µM
[29] = second compound 3.16 µM, first compound 3.16 µM
[30] = second compound 3.16 µM, first compound 10 µM
[31] = second compound 10 µM, first compound 0.0316 µM
[32] = second compound 10 µM, first compound 0.1 µM
[33] = second compound 10 µM, first compound 0.316 µM
[34] = second compound 10 µM, first compound 1 µM
[35] = second compound 10 µM, first compound 3.16 µM
[36] = second compound 10 µM, first compound 10 µM
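Further: spheroids exposed to the compounds for one week.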
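Wherever viability, T/C is given: percent of tumor spheroid viability relative to DMSO vehicle control wells.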

CC(C)(O)C1CCC(Nc2ccc3ncc(-c4cccc(C(F)(F)F)c4)n3n2)CC1 (stereo unspecified) + Cc1cnc(CNC(=O)c2c(=O)c3ccc(N4CCCN(C)CC4)nc3n3c2sc2ccccc23)cn1
1350 nM: IC50 (second compound 0.1 µM)
1670 nM: IC50 (second compound 0.0316 µM)
inactive: viability, T/C [1] 91.5% | viability, T/C [2] 70.3% | viability, T/C [3] 85.9% | viability, T/C [4] 69.8% | viability, T/C [5] 25.8% | viability, T/C [6] 25.2% | viability, T/C [7] 63.4% | viability, T/C [8] 55.3% | viability, T/C [9] 52.6% | viability, T/C [10] 57.6% | viability, T/C [11] 29.6% | viability, T/C [12] 24.7% | viability, T/C [13] 24.4% | viability, T/C [14] 23.7% | viability, T/C [15] 25.7% | viability, T/C [16] 27.1% | viability, T/C [17] 28.8% | viability, T/C [18] 20.6% | viability, T/C [19] 22.9% | viability, T/C [20] 23.8% | viability, T/C [21] 29.4% | viability, T/C [22] 29.9% | viability, T/C [23] 25.6% | viability, T/C [24] 11.9% | viability, T/C [25] 27.7% | viability, T/C [26] 28% | viability, T/C [27] 24.5% | viability, T/C [28] 23.1%
< 31.6 nM: IC50 (second compound 0.316 µM) | IC50 (second compound 1 µM) | IC50 (second compound 3.16 µM) | IC50 (second compound 10 µM)
active: viability, T/C [29] 0.1% | viability, T/C [30] 0.36% | viability, T/C [31] 0.06% | viability, T/C [32] 0.14% | viability, T/C [33] 0.19% | viability, T/C [34] 0.18% | viability, T/C [35] 0.19% | viability, T/C [36] 0.2%

CCCS(=O)(=O)Nc1ccc(F)c(C(=O)c2c[nH]c3ncc(-c4ccc(Cl)cc4)cc23)c1F + CN(C)c1ccc(Nc2c3ccc(NC(=O)CCN4CCCC4)cc3nc3cc(NC(=O)CCN4CCCC4)ccc23)cc1
active: viability, T/C [30] 6.03% | viability, T/C [35] 8.35% | viability, T/C [36] 1.3%
< 31.6 nM: IC50 (second compound 10 µM)
8180 nM: IC50 (second compound 0.0316 µM)
8450 nM: IC50 (second compound 0.316 µM)
7890 nM: IC50 (second compound 0.1 µM)
3750 nM: IC50 (second compound 3.16 µM)
inactive: viability, T/C [1] 105% | viability, T/C [2] 90% | viability, T/C [3] 109% | viability, T/C [4] 104% | viability, T/C [5] 106% | viability, T/C [6] 38.9% | viability, T/C [7] 101% | viability, T/C [8] 119% | viability, T/C [9] 124% | viability, T/C [10] 117% | viability, T/C [11] 89% | viability, T/C [12] 39.8% | viability, T/C [13] 118% | viability, T/C [14] 102% | viability, T/C [15] 111% | viability, T/C [16] 104% | viability, T/C [17] 104% | viability, T/C [18] 40.7% | viability, T/C [19] 95% | viability, T/C [20] 102% | viability, T/C [21] 103% | viability, T/C [22] 94.1% | viability, T/C [23] 119% | viability, T/C [24] 21.9% | viability, T/C [25] 117% | viability, T/C [26] 104% | viability, T/C [27] 126% | viability, T/C [28] 111% | viability, T/C [29] 57.6% | viability, T/C [31] 17.6% | viability, T/C [32] 16.4% | viability, T/C [33] 15.7% | viability, T/C [34] 14.2%
6700 nM: IC50 (second compound 1 µM)

CCc1c2c(nc3ccc(O)cc13)-c1cc3c(c(=O)n1C2)COC(=O)[C@]3(O)CC + Cc1[nH]c2ccc(F)cc2c1-c1nc2c3cccnc3c3ncccc3c2[nH]1
inactive: viability, T/C (second compound 0.0316 µM, first compound 0.000999 µM) 26.3% | viability, T/C (second compound 0.0316 µM, first compound 0.00316 µM) 9.48% | viability, T/C (second compound 0.1 µM, first compound 0.000999 µM) 25.8% | viability, T/C (second compound 0.1 µM, first compound 0.00316 µM) 9.37% | viability, T/C (second compound 0.316 µM, first compound 0.000999 µM) 28.2% | viability, T/C (second compound 1 µM, first compound 0.000999 µM) 26%
active: viability, T/C (second compound 0.0316 µM, first compound 0.00999 µM) 6.06% | viability, T/C [1] 3.24% | viability, T/C (second compound 0.0316 µM, first compound 0.0999 µM) 2.09% | viability, T/C [3] 1.42% | viability, T/C (second compound 0.1 µM, first compound 0.00999 µM) 5.76% | viability, T/C [7] 2.48% | viability, T/C (second compound 0.1 µM, first compound 0.0999 µM) 1.88% | viability, T/C [9] 1.48% | viability, T/C (second compound 0.316 µM, first compound 0.00316 µM) 9.08% | viability, T/C (second compound 0.316 µM, first compound 0.00999 µM) 4.66% | viability, T/C [13] 2.27% | viability, T/C (second compound 0.316 µM, first compound 0.0999 µM) 1.56% | viability, T/C [15] 1.34% | viability, T/C (second compound 1 µM, first compound 0.00316 µM) 8.76% | viability, T/C (second compound 1 µM, first compound 0.00999 µM) 2.75% | viability, T/C [19] 1.69% | viability, T/C (second compound 1 µM, first compound 0.0999 µM) 1.68% | viability, T/C [21] 1.43% | viability, T/C (second compound 3.16 µM, first compound 0.000999 µM) 3.36% | viability, T/C (second compound 3.16 µM, first compound 0.00316 µM) 2.2% | viability, T/C (second compound 3.16 µM, first compound 0.00999 µM) 2.07% | viability, T/C [25] 1.56% | viability, T/C (second compound 3.16 µM, first compound 0.0999 µM) 1.71% | viability, T/C [27] 2.07% | viability, T/C (second compound 10 µM, first compound 0.000999 µM) 1.69% | viability, T/C (second compound 10 µM, first compound 0.00316 µM) 1.34% | viability, T/C (second compound 10 µM, first compound 0.00999 µM) 1.31% | viability, T/C [31] 1.08% | viability, T/C (second compound 10 µM, first compound 0.0999 µM) 0.89% | viability, T/C [33] 1.57%
< 0.999 nM: IC50 (second compound 0.0316 µM) | IC50 (second compound 0.1 µM) | IC50 (second compound 0.316 µM) | IC50 (second compound 1 µM) | IC50 (second compound 3.16 µM) | IC50 (second compound 10 µM)

Reference: PubChem BioAssay AID2060490 (Molecular Pharmacology Branch, DTP, NCI, 2025)
